The record followed here is patent US9932341B2, “Use of pyrazolopyrimidine derivatives for the treatment of PI3K-delta related disorders” (Incyte Corporation, priority 2013, dated 2018).

Counter-ions that a name gives are not always drawn.

This test concerns the target PI3Kδ (p110δ/p85α) (Homo sapiens (Human), UniProt O00329). In words: PI3Kδ Scintillation Proximity Assay (Example A3). It is filed as biochemical. As to conditions: 20 μM ATP, 20 μM PIP2, 4 nM PI3Kδ, read-out: PI3Kδ SPA IC50. Here is the method: [γ-^33P]ATP (10 mCi/mL) was purchased from PerkinElmer (Waltham, Mass.). […] PI3Kδ (p110δ/p85α) was purchased from Millipore (Bedford, Mass.). ATP, MgCl2, DTT, EDTA, MOPS and CHAPS were purchased from Sigma-Aldrich (St. Louis, Mo.). Wheat Germ Agglutinin (WGA) YSi SPA Scintillation Beads was purchased from GE healthcare life sciences (Piscataway, N.J.).
The kinase reaction was conducted in polystyrene 384-well matrix white plate from Thermo Fisher Scientific in a final volume of 25 μL. Inhibitors were first diluted serially in DMSO and added to the plate wells before the addition of other reaction components. The final concentration of DMSO in the assay was 0.5%. The PI3K assays were carried out at room temperature in 20 mM MOPS, pH 6.7, 10 mM MgCl2, 5 mM DTT and CHAPS 0.03%. Reactions were initiated by the addition of ATP, the final reaction mixture consisted of 20 μM PIP2, 20 μM ATP, 0.2 μCi [γ-^33P] ATP, 4 nM PI3Kδ. […] 25 mM EDTA, 400 μM ATP. The final concentration of SPA beads was 1.0 mg/mL. After the plate sealing, plates were shaken overnight at room temperature and centrifuged at 1800 rpm for 10 minutes, the radioactivity of the product was determined by scintillation counting on Topcount (PerkinElmer). IC50 determination was performed by fitting the curve of percent control activity versus the log of the inhibitor concentration using the GraphPad Prism 3.0 software.
A general note: SPA uses beads or plates that emit light when radiolabelled molecules are held near them.

Sequence of PI3Kδ (p110δ/p85α) (O00329 whole entry): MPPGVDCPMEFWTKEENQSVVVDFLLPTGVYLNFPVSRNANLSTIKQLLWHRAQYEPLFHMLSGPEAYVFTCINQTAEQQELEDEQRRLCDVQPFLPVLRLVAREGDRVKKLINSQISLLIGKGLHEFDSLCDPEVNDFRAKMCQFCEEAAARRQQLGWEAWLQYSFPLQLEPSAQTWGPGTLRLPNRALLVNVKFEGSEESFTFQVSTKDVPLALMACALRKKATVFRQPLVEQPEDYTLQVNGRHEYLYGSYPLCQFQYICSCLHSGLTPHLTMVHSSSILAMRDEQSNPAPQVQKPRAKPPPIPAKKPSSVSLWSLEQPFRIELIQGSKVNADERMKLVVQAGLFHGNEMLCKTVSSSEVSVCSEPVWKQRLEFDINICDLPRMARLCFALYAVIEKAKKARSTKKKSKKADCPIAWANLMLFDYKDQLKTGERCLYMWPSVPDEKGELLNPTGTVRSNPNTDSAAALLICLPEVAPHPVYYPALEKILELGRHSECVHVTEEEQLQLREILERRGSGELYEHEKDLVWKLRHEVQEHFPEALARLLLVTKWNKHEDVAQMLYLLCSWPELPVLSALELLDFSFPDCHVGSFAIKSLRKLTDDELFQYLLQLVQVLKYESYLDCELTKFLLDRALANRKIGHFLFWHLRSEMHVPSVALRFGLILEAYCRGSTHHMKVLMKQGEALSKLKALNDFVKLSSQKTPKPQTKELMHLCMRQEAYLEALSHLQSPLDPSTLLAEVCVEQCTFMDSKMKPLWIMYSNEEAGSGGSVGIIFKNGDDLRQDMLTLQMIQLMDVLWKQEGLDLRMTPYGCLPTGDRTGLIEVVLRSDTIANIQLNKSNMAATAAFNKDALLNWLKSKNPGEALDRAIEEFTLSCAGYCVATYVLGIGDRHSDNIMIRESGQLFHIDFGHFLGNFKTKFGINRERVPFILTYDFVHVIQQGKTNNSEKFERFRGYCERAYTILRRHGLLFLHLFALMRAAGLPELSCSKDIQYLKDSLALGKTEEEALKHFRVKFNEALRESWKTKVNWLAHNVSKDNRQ
Sequence of PI3Kδ (p110δ/p85α) (P27986 whole entry partner): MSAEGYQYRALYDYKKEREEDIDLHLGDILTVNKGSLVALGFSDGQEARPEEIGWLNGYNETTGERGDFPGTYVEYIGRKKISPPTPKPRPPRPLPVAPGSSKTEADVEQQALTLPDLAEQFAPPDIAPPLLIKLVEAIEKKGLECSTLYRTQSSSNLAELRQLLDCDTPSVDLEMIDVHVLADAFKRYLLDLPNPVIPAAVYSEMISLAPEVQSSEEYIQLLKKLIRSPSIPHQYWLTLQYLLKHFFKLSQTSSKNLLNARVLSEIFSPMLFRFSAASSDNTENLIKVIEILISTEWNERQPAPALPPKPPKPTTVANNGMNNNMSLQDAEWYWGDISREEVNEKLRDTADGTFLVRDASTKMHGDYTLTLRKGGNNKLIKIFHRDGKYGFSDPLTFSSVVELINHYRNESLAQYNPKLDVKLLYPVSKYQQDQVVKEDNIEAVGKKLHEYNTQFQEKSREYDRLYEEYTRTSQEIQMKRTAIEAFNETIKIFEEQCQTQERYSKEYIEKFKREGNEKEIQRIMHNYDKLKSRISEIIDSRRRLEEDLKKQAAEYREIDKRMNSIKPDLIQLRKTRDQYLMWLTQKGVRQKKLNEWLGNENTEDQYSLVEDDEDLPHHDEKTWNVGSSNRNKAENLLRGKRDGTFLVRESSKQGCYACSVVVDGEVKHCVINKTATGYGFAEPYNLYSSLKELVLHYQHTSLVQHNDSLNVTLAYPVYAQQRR

As for `CCOc1c(C(C)n2nc(C)c3c(N)ncnc32)cc(Cl)c(F)c1C1CNC(=O)O1` (single isomer, unassigned) [Example 356, 5-{3-[1-(4-amino-3-methyl-1H-pyrazolo[3,4-d]pyrimidin-1-yl)ethyl]-5-chloro-2-ethoxy-6-fluorophenyl}-1,3-oxazolidin-2-one], the IC50 fell in the range of 50 to 200 nM. For the compound `COc1c(C(C)n2nc(C)c3c(N)ncnc32)cc(Cl)c(C)c1-c1ccnc(C(=O)N(C)C)c1` (centres unmarked) [Example 200, 4-(3-(1-(4-Amino-3-methyl-1H-pyrazolo[3,4-d]pyrimidin-1-yl)ethyl)-5-chloro-2-methoxy-6-methylphenyl)-N,N-dimethylpicolinamide bis(2,2,2-trifluoroacetate)], the IC50 is less than 10 nM. Next, `COc1c(C(C)n2nc(C)c3c(N)ncnc32)cc(Cl)c(C)c1-c1ccnc(C(=O)NCCO)c1` (racemic) [Example 18, 4-{3-[1-(4-Amino-3-methyl-1H-pyrazolo[3,4-d]pyrimidin-1-yl)ethyl]-5-chloro-2-methoxy-6-methylphenyl}-N-(2-hydroxyethyl)pyridine-2-carboxamide]: less than 10 nM; `COc1c(C(C)n2nc(C)c3c(N)ncnc32)cc(Cl)c(C)c1C1CN(C(=O)[C@H](C)O)C1` (single isomer, unassigned) [Example 118]: less than 10 nM. Next, `COc1c(C(C)n2nc(C)c3c(N)ncnc32)cc(Cl)c(C#N)c1C1CN(S(C)(=O)=O)C1` (single isomer, unassigned) [Example 285, 4-[1-(4-Amino-3-methyl-1H-pyrazolo[3,4-d]pyrimidin-1-yl)ethyl]-6-chloro-3-methoxy-2-[1-(methylsulfonyl)azetidin-3-yl]benzonitrile]: less than 10 nM; `CCOc1c(C(C)n2nc(C)c3c(N)ncnc32)cc(Cl)c(C#N)c1C1CN(CCO)C1` (single isomer, unassigned) [Example 219, 4-[1-(4-Amino-3-methyl-1H-pyrazolo[3,4-d]pyrimidin-1-yl)ethyl]-6-chloro-3-ethoxy-2-[1-(2-hydroxyethyl)azetidin-3-yl]benzonitrile]: less than 10 nM; `CCOc1c(C(C)n2nc(C)c3c(N)ncnc32)cc(Cl)c(C#N)c1C1CN(C)C1` (single isomer, unassigned) [Example 213, 4-[1-(4-Amino-3-methyl-1H-pyrazolo[3,4-d]pyrimidin-1-yl)ethyl]-6-chloro-3-ethoxy-2-(1-methylazetidin-3-yl)benzonitrile]: less than 10 nM.

In the case of `CCOc1c(C(C)n2nc(C)c3c(N)ncnc32)cc(C)c(C#N)c1C1CN(C(=O)C(C)(C)O)C1` (single isomer, unassigned) [322 (1st peak), 4-[1-(4-amino-3-methyl-1H-pyrazolo[3,4-d]pyrimidin-1-yl)ethyl]-3-ethoxy-2-[1-(2-hydroxy-2-methylpropanoyl)azetidin-3-yl]-6-methylbenzonitrile], the half-maximal inhibitory concentration (IC50) was less than 10 nM. Take `COc1c(C(C)n2nc(C)c3c(N)ncnc32)cc(Cl)c(C)c1-c1cnn(CCN(C)C)c1` (single isomer, unassigned) [Example 183, 1-[1-(5-Chloro-3-{1-[2-(dimethylamino)ethyl]-1H-pyrazol-4-yl}-2-methoxy-4-methylphenyl)ethyl]-3-methyl-1H-pyrazolo[3,4-d]pyrimidin-4-amine]: the IC50 was less than 10 nM. Next, `Cc1c(Cl)cc(C(C)n2nc(C)c3c(N)ncnc32)c(OCC(F)F)c1-c1ccc(C(=O)N(C)C)nc1` (single isomer, unassigned) [Example 189, 5-(3-(1-(4-Amino-3-methyl-1H-pyrazolo[3,4-d]pyrimidin-1-yl)ethyl)-5-chloro-2-(2,2-difluoroethoxy)-6-methylphenyl)-N,N-dimethylpicolinamide bis(2,2,2-trifluoroacetate)]: less than 10 nM; `COc1c(C(C)n2nc(C)c3c(N)ncnc32)cc(Cl)c(C)c1C1CN(CC(F)(F)F)C1` (single isomer, unassigned) [Example 108, 1-(1-{5-Chloro-2-methoxy-4-methyl-3-[1-(2,2,2-trifluoroethyl)azetidin-3-yl]phenyl}ethyl)-3-methyl-1H-pyrazolo[3,4-d]pyrimidin-4-amine]: less than 10 nM; `COc1c(C(C)n2nc(C)c3c(N)ncnc32)cc(Cl)c(C)c1-c1ccc(C(=O)N(C)C)c(F)c1` (single isomer, unassigned) [Example 21, 3′-[1-(4-Amino-3-methyl-1H-pyrazolo[3,4-d]pyrimidin-1-yl)ethyl]-5′-chloro-3-fluoro-2′-methoxy-N,N,6′-trimethylbiphenyl-4-carboxamide trifluoroacetate]: less than 10 nM. In the case of `COc1c(C(C)n2nc(C)c3c(N)ncnc32)cc(Cl)c(C#N)c1C1CN(C)C1` (single isomer, unassigned) [Example 262, 4-[1-(4-Amino-3-methyl-1H-pyrazolo[3,4-d]pyrimidin-1-yl)ethyl]-6-chloro-3-methoxy-2-(1-methylazetidin-3-yl)benzonitrile], the IC50 was less than 10 nM. For `COc1c(C(C)n2nc(C)c3c(N)ncnc32)cc(Cl)c(C)c1-c1cnn(CCO)c1` (single isomer, unassigned) [20 (1st peak), 2-(4-(3-(1-(4-Amino-3-methyl-1H-pyrazolo[3,4-d]pyrimidin-1-yl)ethyl)-5-chloro-2-methoxy-6-methylphenyl)-1H-pyrazol-1-yl)ethanol] the value was less than 10 nM.

Take `CCOc1c(C(C)n2nc(C)c3c(N)ncnc32)cc(Cl)c(C#N)c1-c1cncc(S(C)(=O)=O)c1` (racemic) [Example 43, 4-[1-(4-amino-3-methyl-1H-pyrazolo[3,4-d]pyrimidin-1-yl)ethyl]-6-chloro-3-ethoxy-2-[5-(methylsulfonyl)pyridin-3-yl]benzonitrile]: the IC50 is less than 10 nM.

As for `COc1c(C(C)n2nc(C)c3c(N)ncnc32)cc(Cl)c(F)c1C1CN(C)C1` (centres unmarked) [Example 72], the IC50 is less than 10 nM. Next, `COc1c(C(C)n2nc(C)c3c(N)ncnc32)cc(Cl)c(C)c1C1CN([C@H](C)C(=O)N(C)C)C1` (stereo partly drawn) [Example 159, (2R)-2-(3-{3-[1-(4-Amino-3-methyl-1H-pyrazolo[3,4-d]pyrimidin-1-yl)ethyl]-5-chloro-2-methoxy-6-methylphenyl}azetidin-1-yl)-N,N-dimethylpropanamide]: less than 10 nM. For `COc1c(C(C)n2nc(C)c3c(N)ncnc32)cc(Cl)c(C)c1C1CCN(CC(C)(C)O)CC1` (racemic) [Example 164, 1-(4-{3-[1-(4-Amino-3-methyl-1H-pyrazolo[3,4-d]pyrimidin-1-yl)ethyl]-5-chloro-2-methoxy-6-methylphenyl}piperidin-1-yl)-2-methylpropan-2-ol] the value was less than 10 nM; for `COc1c(C(C)n2nc(C)c3c(N)ncnc32)cc(Cl)c(C#N)c1C1CN(C(=O)NC(C)(C)C)C1` (single isomer, unassigned) [Example 292, 3-{3-[1-(4-Amino-3-methyl-1H-pyrazolo[3,4-d]pyrimidin-1-yl)ethyl]-5-chloro-6-cyano-2-methoxyphenyl}-N-(tert-butyl)azetidine-1-carboxamide], less than 10 nM; for `COc1c(C(C)n2nc(C)c3c(N)ncnc32)cc(Cl)c(C)c1C1CN(C)C1` (racemic) [Example 5, 1-{1-[5-chloro-2-methoxy-4-methyl-3-(1-methylazetidin-3-yl)phenyl]ethyl}-3-methyl-1H-pyrazolo[3,4-d]pyrimidin-4-amine], less than 10 nM.

By IC50 is commonly meant the concentration at which inhibition is half-maximal.
